Source: BindingDB's records for doi:10.1111/cbdd.12807 (Zhejiang Hospital, 2016)

Experiments:
[1] = target: 72 kDa type IV collagenase (Rat, UniProt P33436); assay: enzyme-based fluorimetric assay; conditions: pH 7.5; 25 °C
Source text: (§1) For this assay, the reagents used as follows. The substrate corresponds to Mca-Pro-Leu-Gly-Leu-Dpa-Ala-Arg 25 mm in assay buffer. This low-fluorescent peptide is cleaved by MMPs to provide Mca-Pro-Leu-Gly, which is intensely fluorescent at an excitation at 340 nm and emission at 405 nm. While the enzymes pro-MMP-2 250 pm and MMP-9 (recombinant catalytic sequence) 500 pm in assay buffer. The assay buffer consists of Tris HCl 0.1 m, pH 7.5, NaCl 0.1 m, CaCl2 10 mm, 0.05% v/v BRIJ35, APMA (p-aminophenylmercuric acetate) 1 mm. This was carried out in 96-well plate, a solution of […] at the appropriate concentration and […] was incubated together at 25 °C for 30 min, and […] of substrate solution was added and the plate was further incubated 3 h at 37 °C. The incubation solutions were quenched with acetic acid ([…] soln.) and their fluorescence was recorded with the help of a plate reader spectrometer. The inhibitory activities were calculated against a control and IC50 curves, derived from 6 different inhibitor concentrations, extrapolated by means of statistical analysis program graphpad prism (v. 4.0; San Diego, CA, USA). Each inhibitor concentration was used in triplicate and the experiments run twice.

[2] = target: Matrix metalloproteinase-9 (Rattus norvegicus, UniProt P50282); assay: enzyme-based fluorimetric assay; conditions: pH 7.5; 25 °C
Sequence of Matrix metalloproteinase-9 (P50282 whole entry): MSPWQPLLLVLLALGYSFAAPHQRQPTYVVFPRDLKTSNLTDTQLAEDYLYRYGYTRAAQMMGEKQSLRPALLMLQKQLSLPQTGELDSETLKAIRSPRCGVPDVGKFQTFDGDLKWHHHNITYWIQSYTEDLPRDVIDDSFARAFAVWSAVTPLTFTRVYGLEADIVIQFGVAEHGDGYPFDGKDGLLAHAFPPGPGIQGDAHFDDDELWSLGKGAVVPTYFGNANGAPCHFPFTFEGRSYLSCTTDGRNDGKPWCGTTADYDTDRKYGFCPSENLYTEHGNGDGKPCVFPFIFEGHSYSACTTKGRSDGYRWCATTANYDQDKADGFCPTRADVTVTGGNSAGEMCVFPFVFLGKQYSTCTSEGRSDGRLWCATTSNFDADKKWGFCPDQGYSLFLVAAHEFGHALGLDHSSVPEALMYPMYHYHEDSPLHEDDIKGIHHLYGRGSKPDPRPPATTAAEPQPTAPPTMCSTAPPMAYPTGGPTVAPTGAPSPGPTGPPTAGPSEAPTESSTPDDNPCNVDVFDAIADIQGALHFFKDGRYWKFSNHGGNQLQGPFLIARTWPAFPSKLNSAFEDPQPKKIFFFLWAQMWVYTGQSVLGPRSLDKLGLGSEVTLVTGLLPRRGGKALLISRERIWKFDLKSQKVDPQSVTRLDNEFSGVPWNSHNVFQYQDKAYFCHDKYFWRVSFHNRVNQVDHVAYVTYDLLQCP
Source text: as §1

Sequence of 72 kDa type IV collagenase (P33436 whole entry): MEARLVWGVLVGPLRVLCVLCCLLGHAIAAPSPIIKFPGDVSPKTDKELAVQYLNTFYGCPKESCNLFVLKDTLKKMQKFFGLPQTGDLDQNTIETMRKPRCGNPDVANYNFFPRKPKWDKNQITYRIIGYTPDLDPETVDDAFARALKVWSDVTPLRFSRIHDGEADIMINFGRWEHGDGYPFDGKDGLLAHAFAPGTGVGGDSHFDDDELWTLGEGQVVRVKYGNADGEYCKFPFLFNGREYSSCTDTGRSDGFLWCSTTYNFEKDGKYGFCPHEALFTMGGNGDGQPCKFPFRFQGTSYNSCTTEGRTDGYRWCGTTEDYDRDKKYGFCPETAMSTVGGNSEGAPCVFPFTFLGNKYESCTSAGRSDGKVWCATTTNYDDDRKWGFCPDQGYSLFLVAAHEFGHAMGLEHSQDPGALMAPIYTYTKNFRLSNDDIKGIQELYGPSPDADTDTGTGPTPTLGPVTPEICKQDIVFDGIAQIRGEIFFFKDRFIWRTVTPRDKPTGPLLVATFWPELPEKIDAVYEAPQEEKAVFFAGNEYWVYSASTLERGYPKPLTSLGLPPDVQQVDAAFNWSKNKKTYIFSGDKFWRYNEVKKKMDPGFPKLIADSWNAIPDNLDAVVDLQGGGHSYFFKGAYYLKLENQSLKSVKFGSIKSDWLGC

SMILES | IC50 [1] [nM] | IC50 [2] [nM]
COc1ccc(-c2cc(-c3ccc(NS(=O)(=O)c4ccc(C)cc4)cc3)nn2-c2nc(Nc3ccc([N+](=O)[O-])cc3)nc(Nc3ccc([N+](=O)[O-])cc3)n2)cc1 [N-(4-(1-(4,6-bis((4-nitrophenyl)amino)-1,3,5-triazin-2-yl)-5-(4-methoxyphenyl)-1H-pyrazol-3-yl)phenyl)-4-methylbenzenesulphonamide (8h)] | 76.6 | 68.5
CCNc1nc(NCC)nc(-n2nc(-c3ccc(NS(=O)(=O)c4ccc(C)cc4)cc3)cc2-c2ccc(OC)cc2)n1 [N-(4-(1-(4,6-bis(ethylamino)-1,3,5-triazin-2-yl)-5-(4-methoxyphenyl)-1H-pyrazol-3-yl)phenyl)-4-methylbenzenesulphonamide (8b)] | 332 | 302
CNc1nc(NC)nc(-n2nc(-c3ccc(NS(=O)(=O)c4ccc(C)cc4)cc3)cc2-c2ccc(OC)cc2)n1 [N-(4-(1-(4,6-bis(methylamino)-1,3,5-triazin-2-yl)-5-(4-methoxyphenyl)-1H-pyrazol-3-yl)phenyl)-4-methylbenzenesulphonamide (8a)] | 666 | 625
COc1ccc(-c2cc(-c3ccc(NS(=O)(=O)c4ccc(C)cc4)cc3)nn2-c2nc(Nc3ccccc3C)nc(Nc3ccccc3C)n2)cc1 [N-(4-(1-(4,6-bis(o-tolylamino)-1,3,5-triazin-2-yl)-5-(4-methoxyphenyl)-1H-pyrazol-3-yl)phenyl)-4-methylbenzenesulphonamide (8g)] | 67.1 | 58.2
COc1ccc(-c2cc(-c3ccc(NS(=O)(=O)c4ccc(C)cc4)cc3)nn2-c2nc(Nc3ccccc3)nc(Nc3ccccc3)n2)cc1 [N-(4-(1-(4,6-bis(phenylamino)-1,3,5-triazin-2-yl)-5-(4-methoxyphenyl)-1H-pyrazol-3-yl)phenyl)-4-methylbenzenesulphonamide (8d)] | 123 | 105
COc1ccc(-c2cc(-c3ccc(NS(=O)(=O)c4ccc(C)cc4)cc3)nn2-c2nc(N3CCOCC3)nc(N3CCOCC3)n2)cc1 [N-(4-(1-(4,6-dimorpholino-1,3,5-triazin-2-yl)-5-(4-methoxyphenyl)-1H-pyrazol-3-yl)phenyl)-4-methylbenzenesulphonamide (8j)] | 42.3 | 31.2

More lines, in order of falling IC50 [1], values ahead:

IC50 [1] [nM] | IC50 [2] [nM] | SMILES
189 | 156 | COc1ccc(-c2cc(-c3ccc(NS(=O)(=O)c4ccc(C)cc4)cc3)nn2-c2nc(NCCCN)nc(NCCCN)n2)cc1 [N-(4-(1-(4,6-bis((3-aminopropyl)amino)-1,3,5-triazin-2-yl)-5-(4-methoxyphenyl)-1H-pyrazol-3-yl)phenyl)-4-methylbenzenesulphonamide (8c)]
55.3 | 47.1 | COc1ccc(-c2cc(-c3ccc(NS(=O)(=O)c4ccc(C)cc4)cc3)nn2-c2nc(N3CCNCC3)nc(N3CCNCC3)n2)cc1 [N-(4-(1-(4,6-di(piperazin-1-yl)-1,3,5-triazin-2-yl)-5-(4-methoxyphenyl)-1H-pyrazol-3-yl)phenyl)-4-methylbenzenesulphonamide (8i)]
18.6 | 10.2 | COc1ccc(Nc2nc(Nc3ccc(OC)cc3)nc(-n3nc(-c4ccc(NS(=O)(=O)c5ccc(C)cc5)cc4)cc3-c3ccc(OC)cc3)n2)cc1 [N-(4-(1-(4,6-bis((4-methoxyphenyl)amino)-1,3,5-triazin-2-yl)-5-(4-methoxyphenyl)-1H-pyrazol-3-yl)phenyl)-4-methylbenzenesulphonamide (8f)]
8.12 | 2.34 | COc1ccc(-c2cc(-c3ccc(NS(=O)(=O)c4ccc(C)cc4)cc3)nn2-c2nc(Nc3ccc(O)cc3)nc(Nc3ccc(O)cc3)n2)cc1 [N-(4-(1-(4,6-bis((4-hydroxyphenyl)amino)-1,3,5-triazin-2-yl)-5-(4-methoxyphenyl)-1H-pyrazol-3-yl)phenyl)-4-methylbenzenesulphonamide (8e)]
